Experimental data as given in US20200215003A1, “PARENTERAL ADMINISTRATION OF TAPENTADOL” (GRÜNENTHAL GMBH, priority 2011, published 2020).
Counter-ions that a name gives are not always drawn.

Tests used:
[1] = test system: carrageenan induced acute inflammatory pain in rats; assay: carrageenan induced acute inflammatory pain (paw pressure test); format: in vivo; settings: for ED50: Rattus norvegicus, 0.25 h, acute pain, 15 min p. appl.; for time at which the peak effect was reached: p. appl., timepoint of first measurement
Excerpt: (§1) The weight ratios of the components (a) and (b) that will lead to a supra-additive effect (synergistic effect) of the inventive pharmaceutical composition may be determined via the paw pressure test of Randall and Selitto as described in Arch. Int. Pharmacodyn., 1957, 111: 409 to 419, which is a model for inflammatory pain. The respective part of the literature is hereby incorporated by reference and forms part of the present disclosure. Accordingly, the weight ratios of the components (a) and (b) that will lead to a supra-additive effect (synergistic effect) of the inventive pharmaceutical composition were determined in a model of acute pain (A) and a model of chronic pain (B).
Acute inflammation was induced by injection of a 0.1 ml carrageenan solution (0.5% in distilled water) subcutaneously into the plantar surface of the right hind paw of the rat. The mechanical nociceptive threshold was measured using an Algesiometer (Ugo Basile, Italy). The device generates a mechanical force with a linear increase over time. The force was applied to the dorsal surface of the inflamed hind paw via a cone-shaped stylus with a rounded tip (3 mm^2). The nociceptive threshold (Tv) was defined as the force at which the rat vocalises (cut-off force 450 g). Compounds or vehicle were given 3 h after carrageenan injection. The mechanical nociceptive threshold was measured at different times after the drug or vehicle administration. The drug effects are expressed as percentages of the maximal possible effect (MPE) based on the following formula: %MPE=(Tv drug−Tv control)/(cut-off−Tv control)×100. The group size is n=12.
(§2) The analysis of the results with respect to a supra-additive effect of the inventive pharmaceutical composition comprising the components (a) and (b) was carried out via statistical comparison of the theoretical additive ED50-value with the experimentally determined ED50-value of a so-called fixed ratio combination (isobolographic analysis according to Tallarida J T, Porreca F, and Cowan A. Statistical analysis of drug-drug and site-site interactions with isobolograms. Life Sci. 1989; 45: 947-961). The interactions studies presented herein were performed using equieffective doses of the two components, calculated from the ratio of the respective ED50 values of the components if administered alone.

[2] = test system: CFA induced chronic inflammatory pain in rats; assay: Complete Freund Adjuvant (CFA) induced chronic inflammatory pain (paw pressure test); format: in vivo; settings: for ED50: Rattus norvegicus, ip, 0.25 h, chronic pain, 15 min p. appl.; for time at which the peak effect was reached: p. appl., timepoint of first measurement
Excerpt: as §1
Chronic inflammation was induced by an intraplantar injection of 0.05 mL of a CFA solution (Mycobacterium tuberculosis, H37 Ra, Difco Laboratories, Detroit, Mich., U.S.A.; 1 mg/mL in mineral oil) into one hind paw. The mechanical nociceptive threshold is measured before (prevalue) and one day after CFA injection using an Algesiometer (Ugo Basile, Italy). The device generates a mechanical force with a linear increase over time. The force is applied to the dorsal surface of the inflamed rat hind paw via a cone-shaped stylus with a rounded tip (2 mm tip diameter). The nociceptive threshold is defined as the force (in grams) at which the rat vocalises (cut-off force 450 g). The mechanical nociceptive threshold is measured at different timepoints after the drug or vehicle administration. The antinociceptive and antihyperalgesic activity of the tested substance is expressed as percentages of the maximal possible effect (%MPE). The maximal possible effect is defined as the percentage of prevalue withdrawal treshold before CFA-injection. The group size is n=10.
as §2

[3] = target: recombinantly produced μ-opioid receptor (Homo sapiens, UniProt P35372); settings: compared with morphine; cited from earlier work
Chain of recombinantly produced μ-opioid receptor (P35372 whole entry): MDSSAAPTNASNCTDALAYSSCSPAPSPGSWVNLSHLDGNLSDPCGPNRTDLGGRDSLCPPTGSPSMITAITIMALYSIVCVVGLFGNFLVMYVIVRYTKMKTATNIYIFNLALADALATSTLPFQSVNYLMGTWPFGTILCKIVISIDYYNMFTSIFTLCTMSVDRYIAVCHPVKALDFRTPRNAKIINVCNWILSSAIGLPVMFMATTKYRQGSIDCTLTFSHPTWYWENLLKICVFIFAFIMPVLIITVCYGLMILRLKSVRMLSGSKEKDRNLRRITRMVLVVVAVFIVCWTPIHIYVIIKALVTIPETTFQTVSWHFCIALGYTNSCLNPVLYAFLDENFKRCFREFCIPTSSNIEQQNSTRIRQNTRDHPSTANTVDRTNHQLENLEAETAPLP

[4] = clinical studies, compared with morphine; cited from earlier work
[5] = test system: diabetic hyperalgesia in male C57/BL/6 mice; assay: streptozotocin-induced diabetic heat hyperalgesia, hot plate 50 °C; format: in vivo

Row | SMILES | ED50 ([1]; ip) [mg/kg] | time at which the peak effect was reached [1] [min] | ED50 [2] [mg/kg] | time at which the peak effect was reached [2] [min] | affinity to the recombinantly produced μ-opioid receptor relative to morphine [3] [times less] | pain-alleviating action relative to morphine [4] | combined intrathecal and intracerebroventricular ED 50 compared to theoretical additive effects ([5]; FIG. 7, p <0.001) | ED-50 ([5]; combination of intrathecal and intracerebroventricular administration, threshold values after 15 minutes) | ED-50 ([5]; intracerebroventricular administration, thermal hyperalgesia threshold values after 15 minutes) | inhibition of diabetic heat hyperalgesia ([5]; intracerebroventricular, 0.1, 0.3 and 1.00 μg (FIGS. 3 and 4)) | ED-50 ([5]; intrathecal administration, thermal hyperalgesia threshold values after 15 minutes) | inhibition of diabetic heat hyperalgesia ([5]; intrathecal plus intracerebroventricular, simultaneously (FIGS. 5 and 6)) | inhibition of diabetic heat hyperalgesia ([5]; intrathecal, 0.316, 1.00 and 3.16 μg (FIGS. 1 and 2)) | ED50 ([1]; iv) [mg/kg]
1 | CCN(CC)CC(=O)Nc1c(C)cccc1C [Lidocaine, lidocaine hydrochloride] | 32.4 | 15 | 26.8 | 15 |  |  |  |  |  |  |  |  |  | 
2 | CC[C@@H](c1cccc(O)c1)[C@@H](C)CN(C)C [tapentadol, (1 R,2R)-3-(3-dimethylamino-1-ethyl-2-methyl-propyl)-phenol] |  | 15 | 6.34 | 15 | 18 | two to three times less | synergistically better | 0.053 (0.032-0.074) mg/animal | 0.18 (0.14-0.22) mg/animal | dose-dependent inhibition | 0.42 (0.26-0.58) mg/animal | dose-dependent inhibition | dose-dependent inhibition | 1.75
